The text below walks through data of patent publication US10392667B2, “Methods and devices for predicting treatment efficacy of fulvestrant in cancer patients” (Medical Prognosis Institute A/S, priority 2013, dated 2019).

The structures appear in SMILES notation. Read-outs that look alike come from different tables or passages of the source.

The test system of one assay is Ki67. As to conditions: after 4 weeks of treatment, patients, cited from earlier work.
In assay [1] the test system is ER-positive, locally advanced breast cancer. The assay can be described thus: NEWEST Phase II trial: tumor response by 3D ultrasound after 16 weeks of neoadjuvant fulvestrant. It counts as in vivo, human. As to conditions: for overall response rate (CR+PR): 16 weeks. Here is the method: NEWEST (Neoadjuvant Endocrine Therapy for Women with Estrogen-Sensitive Tumors; 9238IL/0065) was a randomized, open-label, multicenter, Phase II study involving postmenopausal women with newly diagnosed, ER-positive, locally advanced breast cancer who had received no prior breast cancer treatment ([…]). Eligible patients were randomized 1:1 to receive either fulvestrant 500 mg or 250 mg for 16 weeks preceding surgery. Fulvestrant 500 mg was given as two 5 ml intramuscular injections on days 0, 14, 28 and every 28 days thereafter for 16 weeks. Fulvestrant 250 mg was given as one 5 ml injection on days 0, 28 and every 28 days thereafter for 16 weeks (Kuter et al., Breast Cancer Res. Treat., 133:237-246, 2012).
A total of 211 patients were enrolled in NEWEST. Of these, 173 completed the study and 121 met all protocol criteria. Fresh frozen pre-treatment samples with sufficient RNA (100 ng) was available from 44 patients. Two samples were discarded due to array quality, leaving 42 patients. Of these 42 patients, 22 were in the 500 mg treatment group and 20 were in the 250 mg treatment group.
During the 16-week treatment phase, patients underwent clinical breast examination every 4 weeks. Tumor volume was measured by 3D ultrasound at baseline, week 4, and after 16 weeks of treatment before definitive surgery. Tumor response was defined as complete response (CR, disappearance of all lesions), partial response (PR, at least 65% reduction in tumor volume by 3D ultrasound), disease progression (PD, at least 73% increase in tumor volume), or stable disease (SD, neither partial response nor disease progression). The reduction for partial response was in relation to baseline but for progressive disease was in relation to the smallest tumor volume at any preceding assessment. Objective responders were those patients with a complete response or partial response.

For another assay, the system named is NCI60 cell lines. As to conditions: mean over all NCI60 cell lines (FIG. 8); cited from earlier work.
Another assay deals with early breast cancer. The assay can be described thus: Trial 223: neoadjuvant anastrozole, response according to RECIST. As to conditions: patients with outcome information. The format is in vivo, human. How it is done: Trial 223 (Smith et al., J. Clin. Oncol., 25:3816-3822, 2007) was a placebo-controlled trial of neoadjuvant anastrozole alone or with gefitinib in early breast cancer. We used pre-treatment samples from patients from arm B and C: anastrozole 1 mg/d for the duration of the 16 week period plus placebo 1 tablet/d orally for 2 weeks. Patients in arm B were followed by gefitinib 250 mg/d orally for 14 weeks whereas patients in arm C continued with placebo for 14 weeks. We received pre-treatment biopsy material from 21 patients in arms B and C with Ki67 measurements after 2 weeks. We received pre-treatment biopsy material from 16 patients in arm C with outcome information according to guidelines set forth in Response Evaluation Criteria in Solid Tumors (RECIST).
The prediction score of the invention (e.g., prediction score for fulvestrant) was tested for the ability to predict response to aromatase inhibition in a small cohort of 21 patients treated with neoadjuvant anastrozole in a similar protocol to that used to test fulvestrant. […] In addition there was no correlation between prediction score and change in Ki67 produced after 2 weeks of anastrozole treatment (N=21, P=0.9).

[2] abbreviates: 250 mg fulvestrant, patients with array data.
The mark [3] stands for this setting: 500 mg fulvestrant for 16 weeks, patients with array data.

Consider `C[C@]12CC[C@@H]3c4ccc(O)cc4C[C@@H](CCCCCCCCC[S+]([O-])CCCC(F)(F)C(F)(F)F)[C@H]3[C@@H]1CC[C@@H]2O` (stereo partly drawn) [Fulvestrant, fulvestrant], for which the “average reduction in Ki67” value with Ki67 (250 mg dose) is recorded as 47%. In the assay on Ki67 (500 mg dose), the “average reduction in Ki67” value was 79%. Besides, the “overall response rate (CR+PR)” value in assay [1] (250 mg fulvestrant, 19 patients with array data) is on record as 26%. Moreover, in assay [1] (setting [2]), the “number of partial responders” value is given as 5, the “number of patients with stable disease” value is 13 and the “number of progressive disease patients” value is given as 1. In assay [1] (setting [3]), the “number of non-responders (SD+PD)” value amounted to 9 and the “number of responders (PR)” value was determined as 11. Further, the “overall response rate (CR+PR)” value in assay [1] (500 mg fulvestrant) amounted to 50%. Moreover, the GI50 with NCI60 cell lines was 63 µM.
Regarding `CC(C)(C#N)c1cc(Cn2cncn2)cc(C(C)(C)C#N)c1` [anastrozole], in the assay on early breast cancer, the number of nonresponders result was “Seven” and the number of responders entry was “Nine”.
`O=C(c1ccc(OCCN2CCCCC2)cc1)c1c(-c2ccc(O)cc2)sc2cc(O)ccc12` [raloxifene]: the GI50 in the assay on NCI60 cell lines is 8.4 µM.
For `CC/C(=C(\c1ccccc1)c1ccc(OCCN(C)C)cc1)c1ccccc1` [tamoxifen], in the assay on NCI60 cell lines, the GI50 was 4.3 µM.
`CN(C)CCOc1ccc(/C(=C(/CCCl)c2ccccc2)c2ccccc2)cc1` [toremifene]: in the assay on NCI60 cell lines, the GI50 was 13 µM.

The GI50 is the concentration giving 50% growth inhibition.
